Like-named read-outs stand apart in the source and are kept apart here.
What was measured:
[1] = test system: velvetleaf; experiment: Test B pre-/postemergence herbicide test; format: in vivo, Abutilon theophrasti; conditions: Abutilon theophrasti, 336 h; for pest or weed control at 125 g/ha: 125 g ai/ha; for pest or weed control at 500 g/ha: 500 g ai/ha
Method in brief: (§1)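 Greenhouse pot assay with simultaneous preemergence (treated seed) and postemergence (2–18 cm seedlings) applications of surfactant-containing, non-phytotoxic solvent formulations. Response scored visually 13–15 days later on a 0–100 scale, 100 meaning complete control.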

[2] = test system: small flower umbrella sedge; experiment: Test B flooded paddy test; format: in vivo, Cyperus difformis; conditions: Cyperus difformis, 336 h, 1000 g ai/ha, scale 0 to 100 (0 no effect, 100 complete control), read-out: Sedge, Umbrella plant response rating
Method in brief: (§2)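 Postemergence plants were sprayed with formulated test chemicals at 2 to 18 cm height (1- to 4-leaf stage); paddy species were grown to the 2-leaf stage. After 13 to 15 days in a greenhouse, injury was rated visually against untreated controls on a 0–100 scale (0 = no effect, 100 = complete control).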

[3] = test system: wheat; experiment: Test B postemergence herbicide test; format: in vivo, Triticum aestivum; conditions: Triticum aestivum, post-emergence, 336 h, postemergence, read-out: Wheat plant response rating
Method in brief: (§3)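 Greenhouse test; postemergence application to plants at 1–4 leaves (2–18 cm); paddy species at 2 leaves; evaluated visually vs controls at 13–15 days; scale 0–100 (100 = complete control).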

[4] = test system: wild oat; experiment: Test B postemergence herbicide test; format: in vivo, Avena fatua; conditions: Avena fatua, post-emergence, 336 h, postemergence, read-out: Oat, Wild plant response rating
Method in brief: as §3

[5] = test system: morningglory; experiment: Test B pre-/postemergence herbicide test; format: in vivo, Ipomoea coccinea; conditions: Ipomoea, 336 h; for pest or weed control at 125 g/ha: 125 g ai/ha; for pest or weed control at 500 g/ha: 500 g ai/ha
Method in brief: (§4)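 Seeds were planted and treated preemergence with compounds formulated in a non-phytotoxic solvent mixture containing surfactant, while plants at the 1- to 4-leaf stage (2 to 18 cm) received postemergence sprays. Flooded paddy plants were grown to the 2-leaf stage. After 13 to 15 days in a greenhouse, injury was visually rated 0–100 against untreated controls.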

[6] = test system: blackgrass; experiment: Test B postemergence herbicide test; format: in vivo, Alopecurus myosuroides; conditions: Alopecurus myosuroides, post-emergence, 336 h, postemergence, read-out: Blackgrass plant response rating
Method in brief: as §2

[7] = test system: barnyardgrass; experiment: Test B flooded paddy test; format: in vivo, Echinochloa crus-galli; conditions: Echinochloa crus-galli, 336 h, 1000 g ai/ha, scale 0 to 100 (0 no effect, 100 complete control), read-out: Barnyardgrass plant response rating
Method in brief: as §2

[8] = test system: pigweed; experiment: Test B pre-/postemergence herbicide test; format: in vivo, Amaranthus retroflexus; conditions: Amaranthus retroflexus, 336 h; for pest or weed control at 125 g/ha: 125 g ai/ha; for pest or weed control at 500 g/ha: 500 g ai/ha
Method in brief: as §1

[9] = test system: cocklebur; experiment: Test B pre-/postemergence herbicide test; format: in vivo, Xanthium strumarium; conditions: Xanthium strumarium; for pest or weed control at 125 g/ha: 125 g ai/ha; for pest or weed control at 500 g/ha: 500 g ai/ha
Method in brief: as §4

[10] = test system: corn; experiment: Test B pre-/postemergence herbicide test; format: in vivo, Zea mays; conditions: Zea mays; for plant injury at 125 g/ha: 125 g ai/ha
Method in brief: as §1

[11] = test system: ducksalad; experiment: Test B flooded paddy test; format: in vivo, Heteranthera limosa; conditions: Heteranthera limosa, 336 h, 1000 g ai/ha, scale 0 to 100 (0 no effect, 100 complete control), read-out: Ducksalad plant response rating
Method in brief: as §2

[12] = test system: Surinam grass; experiment: Test B pre-/postemergence herbicide test; format: in vivo, Urochloa decumbens; conditions: Urochloa decumbens; for pest or weed control at 125 g/ha: 125 g ai/ha; for pest or weed control at 500 g/ha: 500 g ai/ha
Method in brief: as §1

[13] = test system: rice; experiment: Test B flooded paddy test; format: in vivo, Oryza sativa; conditions: Oryza sativa, 336 h, 1000 g ai/ha, scale 0 to 100 (0 no effect, 100 complete control), read-out: Rice plant response rating
Method in brief: as §3

[14] = test system: barnyardgrass; experiment: Test B pre-/postemergence herbicide test; format: in vivo, Echinochloa crus-galli; conditions: Echinochloa crus-galli; for pest or weed control at 125 g/ha: 125 g ai/ha; for pest or weed control at 500 g/ha: 500 g ai/ha
Method in brief: as §4

[15] = test system: giant foxtail; experiment: Test B pre-/postemergence herbicide test; format: in vivo, Setaria faberi; conditions: Setaria faberi, 336 h; for pest or weed control at 125 g/ha: 125 g ai/ha; for pest or weed control at 500 g/ha: 500 g ai/ha
Method in brief: as §1

[16] = test system: large crabgrass; experiment: Test B pre-/postemergence herbicide test; format: in vivo, Digitaria sanguinalis; conditions: Digitaria sanguinalis; for pest or weed control at 125 g/ha: 125 g ai/ha; for pest or weed control at 500 g/ha: 500 g ai/ha
Method in brief: as §1

[17] = 125 g ai/ha, visual rating, scale 0 (no effect) to 100 (complete control)
[18] = 500 g ai/ha, scale 0 to 100, 0 is no effect, 100 is complete control

**Q.** For `CCn1nc(C(C)(C)C)c(F)c1C(=O)Nc1cc(C(=O)N(C)C)ccc1F` [Compound 276, N-[5-[(dimethylamino)carbonyl]-2-fluorophenyl]-3-(1,1-dimethylethyl)-1-ethyl-4-fluoro-1H-pyrazole-5-carboxamide], which pest or weed control at 125 g/ha ([1]; post-emergence, postemergence, visual rating, scale 0 (no effect) to 100 (complete control), read-out: Velvetleaf plant response rating) is on record?
**A.** 10%

**Q.** And the pest or weed control at 500 g/ha ([1]; post-emergence, postemergence, scale 0 to 100, 0 is no effect, 100 is complete control, read-out: Velvetleaf plant response rating)?
**A.** 40%

**Q.** What about the pest or weed control at 125 g/ha ([1]; pre-emergence, 0 = no effect, 100 = complete control, read-out: Velvetleaf plant response rating (0 to 100 scale)) of the same molecule?
**A.** 0%

**Q.** What about the pest or weed control at 500 g/ha ([1]; pre-emergence, visual rating, 0 = no effect, 100 = complete control, read-out: Plant response rating, Velvetleaf) of the same molecule?
**A.** 50%

**Q.** What about the pest or weed control at 1000 g/ha [2] of the same molecule?
**A.** 80%

**Q.** What about the plant injury at 125 g/ha [3, 17] of the same molecule?
**A.** 20%

**Q.** And the plant injury at 500 g/ha [3, 18]?
**A.** 30%

**Q.** What about the pest or weed control at 125 g/ha [4, 17] of the same molecule?
**A.** 30%

**Q.** What about the pest or weed control at 500 g/ha [4, 18] of the same molecule?
**A.** 40%

**Q.** And the pest or weed control at 125 g/ha ([5]; post-emergence, postemergence, visual rating, scale 0 (no effect) to 100 (complete control), read-out: Morningglory plant response rating)?
**A.** 10%

**Q.** What about the pest or weed control at 500 g/ha ([5]; post-emergence, postemergence, scale 0 to 100, 0 is no effect, 100 is complete control, read-out: Morningglory plant response rating) of the same molecule?
**A.** 30%

**Q.** What about the pest or weed control at 125 g/ha ([5]; pre-emergence, 0 = no effect, 100 = complete control, read-out: Morningglory plant response rating (0 to 100 scale)) of the same molecule?
**A.** 0%

**Q.** What about the pest or weed control at 500 g/ha ([5]; pre-emergence, visual rating, 0 = no effect, 100 = complete control, read-out: Plant response rating, Morningglory) of the same molecule?
**A.** 10%

**Q.** And the pest or weed control at 125 g/ha [6, 17]?
**A.** 30%

**Q.** And the pest or weed control at 500 g/ha [6, 18]?
**A.** 40%

**Q.** What about the pest or weed control at 1000 g/ha [7] of the same molecule?
**A.** 70%

**Q.** What about the pest or weed control at 125 g/ha ([8]; post-emergence, postemergence, visual rating, scale 0 (no effect) to 100 (complete control), read-out: Pigweed plant response rating) of the same molecule?
**A.** 40%

**Q.** What about the pest or weed control at 500 g/ha ([8]; post-emergence, postemergence, scale 0 to 100, 0 is no effect, 100 is complete control, read-out: Pigweed plant response rating) of the same molecule?
**A.** 70%

**Q.** And the pest or weed control at 125 g/ha ([8]; pre-emergence, 0 = no effect, 100 = complete control, read-out: Pigweed plant response rating (0 to 100 scale))?
**A.** 30%

**Q.** What about the pest or weed control at 500 g/ha ([8]; pre-emergence, visual rating, 0 = no effect, 100 = complete control, read-out: Plant response rating, Pigweed) of the same molecule?
**A.** 100%

**Q.** And the pest or weed control at 125 g/ha ([9]; post-emergence, postemergence, visual rating, scale 0 (no effect) to 100 (complete control), read-out: Cocklebur plant response rating)?
**A.** 10%

**Q.** And the pest or weed control at 500 g/ha ([9]; post-emergence, postemergence, scale 0 to 100, 0 is no effect, 100 is complete control, read-out: Cocklebur plant response rating)?
**A.** 10%

**Q.** What about the pest or weed control at 125 g/ha ([9]; pre-emergence, 0 = no effect, 100 = complete control, read-out: Cocklebur plant response rating (0 to 100 scale)) of the same molecule?
**A.** 0%

**Q.** What about the pest or weed control at 500 g/ha ([9]; pre-emergence, visual rating, 0 = no effect, 100 = complete control, read-out: Plant response rating, Cocklebur) of the same molecule?
**A.** 30%

**Q.** And the plant injury at 125 g/ha ([10]; post-emergence, postemergence, visual rating, scale 0 (no effect) to 100 (complete control), read-out: Corn plant response rating)?
**A.** 0%

**Q.** And the plant injury at 500 g/ha ([10]; post-emergence, postemergence, 500 g ai/ha, scale 0 to 100, 0 is no effect, 100 is complete control, read-out: Corn plant response rating)?
**A.** 20%

**Q.** And the plant injury at 125 g/ha ([10]; pre-emergence, 0 = no effect, 100 = complete control, read-out: Corn plant response rating (0 to 100 scale))?
**A.** 20%

**Q.** What about the Corn plant response rating (crop injury, 0 = no effect, 100 = complete kill) at 500 g/ha ([10]; pre-emergence, 500 g ai/ha, visual rating, 0 = no effect, 100 = complete control) of the same molecule?
**A.** 60%

**Q.** And the pest or weed control at 1000 g/ha [11]?
**A.** 80%

**Q.** And the pest or weed control at 125 g/ha ([12]; post-emergence, postemergence, visual rating, scale 0 (no effect) to 100 (complete control), read-out: Surinam Grass plant response rating)?
**A.** 10%

**Q.** What about the pest or weed control at 500 g/ha ([12]; post-emergence, postemergence, scale 0 to 100, 0 is no effect, 100 is complete control, read-out: Surinam Grass plant response rating) of the same molecule?
**A.** 20%

**Q.** What about the pest or weed control at 125 g/ha ([12]; pre-emergence, 0 = no effect, 100 = complete control, read-out: Surinam Grass plant response rating (0 to 100 scale)) of the same molecule?
**A.** 10%

**Q.** What about the pest or weed control at 500 g/ha ([12]; pre-emergence, visual rating, 0 = no effect, 100 = complete control, read-out: Plant response rating, Surinam Grass) of the same molecule?
**A.** 60%

**Q.** And the plant injury at 1000 g/ha [13]?
**A.** 70%

**Q.** And the pest or weed control at 125 g/ha ([14]; post-emergence, postemergence, visual rating, scale 0 (no effect) to 100 (complete control), read-out: Barnyardgrass plant response rating)?
**A.** 0%

**Q.** And the pest or weed control at 500 g/ha ([14]; post-emergence, postemergence, scale 0 to 100, 0 is no effect, 100 is complete control, read-out: Barnyardgrass plant response rating)?
**A.** 10%

**Q.** What about the pest or weed control at 125 g/ha ([14]; pre-emergence, 0 = no effect, 100 = complete control, read-out: Barnyardgrass plant response rating (0 to 100 scale)) of the same molecule?
**A.** 60%

**Q.** What about the pest or weed control at 500 g/ha ([14]; pre-emergence, visual rating, 0 = no effect, 100 = complete control, read-out: Plant response rating, Barnyardgrass) of the same molecule?
**A.** 80%

**Q.** And the pest or weed control at 125 g/ha ([15]; post-emergence, postemergence, visual rating, scale 0 (no effect) to 100 (complete control), read-out: Foxtail, Giant plant response rating)?
**A.** 10%

**Q.** What about the pest or weed control at 500 g/ha ([15]; post-emergence, postemergence, scale 0 to 100, 0 is no effect, 100 is complete control, read-out: Foxtail, Giant plant response rating) of the same molecule?
**A.** 40%

**Q.** What about the pest or weed control at 125 g/ha ([15]; pre-emergence, 0 = no effect, 100 = complete control, read-out: Foxtail, Giant plant response rating (0 to 100 scale)) of the same molecule?
**A.** 30%

**Q.** What about the pest or weed control at 500 g/ha ([15]; pre-emergence, visual rating, 0 = no effect, 100 = complete control, read-out: Plant response rating, Foxtail, Giant) of the same molecule?
**A.** 90%

**Q.** And the pest or weed control at 125 g/ha ([16]; post-emergence, postemergence, visual rating, scale 0 (no effect) to 100 (complete control), read-out: Crabgrass, Large plant response rating)?
**A.** 10%

**Q.** What about the pest or weed control at 500 g/ha ([16]; post-emergence, postemergence, scale 0 to 100, 0 is no effect, 100 is complete control, read-out: Crabgrass, Large plant response rating) of the same molecule?
**A.** 20%

**Q.** What about the pest or weed control at 125 g/ha ([16]; pre-emergence, 0 = no effect, 100 = complete control, read-out: Crabgrass, Large plant response rating (0 to 100 scale)) of the same molecule?
**A.** 10%

**Q.** And the pest or weed control at 500 g/ha ([16]; pre-emergence, visual rating, 0 = no effect, 100 = complete control, read-out: Plant response rating, Crabgrass, Large)?
**A.** 70%

From patent US20060069132A1, “Azolecarboxamide herbicides” (priority 2004, published 2006)
